From PubChem BioAssay (NCI)
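How tested: cells in 96-well plates exposed to compound for 48 hours at five concentrations. GI50: concentration for 50% inhibition of growth. TGI is the concentration that stops growth completely.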

Key:
Assay in all cases: NCI tumour cell line growth inhibition, 48 h
SF-539 CNS = system: SF-539 CNS
NCI-H23 lung = system: NCI-H23 lung
HS 578T breast = system: HS 578T breast
NCI-H226 lung = system: NCI-H226 lung
SR leukemia = system: SR leukemia
NCI-H460 lung = system: NCI-H460 lung
M14 melanoma = system: M14 melanoma
RXF 393 renal = system: RXF 393 renal
RPMI-8226 leukemia = system: RPMI-8226 leukemia
SNB-75 CNS = system: SNB-75 CNS

| Compound | GI50 (SF-539 CNS) | TGI (SF-539 CNS) | GI50 (NCI-H23 lung) | TGI (NCI-H23 lung) | GI50 (HS 578T breast) | TGI (HS 578T breast) | GI50 (NCI-H226 lung) | TGI (NCI-H226 lung) | GI50 (SR leukemia) | TGI (SR leukemia) | GI50 (NCI-H460 lung) | TGI (NCI-H460 lung) | GI50 (M14 melanoma) | TGI (M14 melanoma) | GI50 (RXF 393 renal) | TGI (RXF 393 renal) | GI50 (RPMI-8226 leukemia) | TGI (RPMI-8226 leukemia) | GI50 (SNB-75 CNS) | TGI (SNB-75 CNS) |
| --- | --- | --- | --- | --- | --- | --- | --- | --- | --- | --- | --- | --- | --- | --- | --- | --- | --- | --- | --- | --- |
| Cn1cc(C2=C(c3c4n(c5ccccc35)CC(CN)C4)C(=O)NC2=O)c2ccccc21 (stereo not given) | 2.99 µM | 6.24 µM | 4.38 µM | 11.1 µM | 1.03 µM | 5.6 µM | 3.93 µM | 18 µM | 1.74 µM | 13.8 µM | 3.79 µM | 7.8 µM | 3.3 µM | 7.33 µM | 2.87 µM | 6.19 µM | 4.57 µM | 11.1 µM | 0.246 µM | 2.93 µM |
| C=C1C(=O)O[C@H]2[C@H]1CC/C(COC(=O)/C=C\C(=O)NCc1ccc(Cn3c(=O)sn(-c4ccc(OC)cc4)c3=O)cc1)=C\CC[C@@]1(C)O[C@@H]21 | 0.736 µM | 1.41 µM | 0.863 µM | 1.84 µM | 0.913 µM | 2.51 µM | 1.28 µM | 5.51 µM | 0.322 µM | 11.8 µM | 0.804 µM | 1.81 µM | 0.603 µM | 1.36 µM | 0.51 µM | 1.17 µM | 0.313 µM | 2.43 µM | 0.407 µM | 1.23 µM |
| CCCn1cc(C2=C(c3cn(C)c4ccccc34)C(=O)NC2=O)c2ccccc21 | 0.689 µM | 2.8 µM | 2.67 µM | 17.8 µM | 0.766 µM | 16 µM | 2.69 µM | 9.78 µM | 0.352 µM | 9.99 µM | 1.04 µM | 7.39 µM | 1.83 µM | > 18.2 µM | 0.663 µM | 2.87 µM | 1.95 µM | 11.6 µM | 0.458 µM | 2.09 µM |
| O=C(CCc1nnc(-c2c(Cl)cccc2Cl)o1)c1nc2ccccc2[nH]1 | 10.5 µM | 39.6 µM | 3.23 µM | 63.2 µM | 9.71 µM | 93.9 µM | 6.66 µM | 31.2 µM | 2.63 µM | 15.2 µM | 4.99 µM | 28.6 µM | 5.86 µM | 31.5 µM | 4.3 µM | 49.7 µM | 3.61 µM | 23.3 µM | 18.7 µM | > 100 µM |
| CN(C)c1ccc(/C=C(\C#N)c2cc3ccccc3n2C)cc1 | 0.208 µM | 0.713 µM | 0.56 µM | > 100 µM | 0.361 µM | > 100 µM | 1.46 µM | > 100 µM | 0.0396 µM | – | 0.353 µM | 4.4 µM | 0.075 µM | > 100 µM | 0.133 µM | 0.549 µM | 0.351 µM | > 100 µM | 0.0562 µM | 1.75 µM |
| CSC(=S)N/N=C/c1ccccc1 | – | > 100 µM | – | > 100 µM | – | > 100 µM | – | > 100 µM | – | > 100 µM | – | > 100 µM | – | > 100 µM | – | 76.9 µM | – | > 100 µM | – | > 100 µM |
| O=C(Nc1ncc(Cc2ccccc2)s1)c1ccc2c(c1)OCCO2 | 0.0283 µM | 0.177 µM | 0.0679 µM | > 100 µM | 0.0353 µM | > 100 µM | 0.278 µM | 7.01 µM | 0.0487 µM | > 100 µM | 0.0375 µM | > 34.5 µM | – | – | 0.0231 µM | 0.0715 µM | 0.0587 µM | > 100 µM | 0.0277 µM | 1.66 µM |
| O=C(CCCCC(=O)N/N=C\c1ccccc1Cl)N/N=C\c1ccccc1Cl | 16.9 µM | > 100 µM | 13.7 µM | > 100 µM | 2.02 µM | 49 µM | 15.4 µM | > 100 µM | > 100 µM | > 100 µM | 3.15 µM | > 100 µM | 2.06 µM | > 100 µM | 11 µM | 32.7 µM | 0.723 µM | > 100 µM | 12.7 µM | 32.9 µM |
| C#CC[C@@H]1C[C@]2(C)[C@H]3CC[C@@H]4[C@H]5[C@H](C(=C)C)CC[C@]5(C(=O)O)CC[C@@]4(C)[C@]3(C)CC[C@H]2C(C)(C)[C@H]1O | 2.67 µM | 7.88 µM | 2.38 µM | 6.95 µM | 2.34 µM | 7.01 µM | 2.05 µM | 6.56 µM | 3.12 µM | 11.9 µM | 1.62 µM | 3.18 µM | 2.05 µM | 4.68 µM | 1.7 µM | 3.52 µM | 1.68 µM | 14.7 µM | 1.95 µM | 4.12 µM |
| CN(C)CCCNC(=O)c1cc(NC(=O)CCNC(=O)c2ccc3c(c2)C(=O)c2ccccc2C3=O)cn1C | > 100 µM | > 100 µM | > 100 µM | > 100 µM | > 100 µM | > 100 µM | > 100 µM | > 100 µM | 31 µM | 99.6 µM | > 100 µM | > 100 µM | > 100 µM | > 100 µM | > 100 µM | > 100 µM | 48 µM | > 100 µM | – | – |
| Fc1ccc(CNc2c3ccccc3nc3ccccc23)cc1 | 2.22 µM | 5.7 µM | 2.36 µM | 8.57 µM | 3.05 µM | 10.7 µM | 2 µM | 5.44 µM | 2.2 µM | 7.75 µM | 2.3 µM | 6.69 µM | 2.97 µM | 12.4 µM | 2.07 µM | 5.4 µM | 2.03 µM | 5.79 µM | 2.01 µM | 10.8 µM |
| CC(=O)Oc1ccc2ccc(=O)oc2c1OC(C)=O | – | > 100 µM | – | > 100 µM | – | > 100 µM | – | – | – | > 100 µM | – | > 100 µM | – | > 100 µM | – | 71.4 µM | – | > 100 µM | – | > 100 µM |
| O=C(CCCCCCC(=O)N/N=C/c1ccc(N(c2ccccc2)c2ccccc2)cc1)NO | 2.17 µM | 4.95 µM | 2.41 µM | 10.7 µM | 6.14 µM | 31.2 µM | – | – | 2.38 µM | 14.1 µM | 1.54 µM | 8.58 µM | – | – | 2.27 µM | 7.06 µM | 1.88 µM | 14 µM | 2.04 µM | 14.2 µM |
